Measured values: ChEMBL document CHEMBL1132353, “New 4-point pharmacophore method for molecular similarity and diversity applications: overview of the method and applications, including a novel approach to the design of combinatorial libraries containing privileged substructures” (J Med Chem, 1999)

Tests used:
[1] = target: Prothrombin (Homo sapiens, UniProt P00734)
Description: Inhibitory activity against thrombin

[2] = target: Coagulation factor X (Homo sapiens, UniProt P00742); experiment: Inhibitory activity against Coagulation factor Xa
Chain of Coagulation factor X (P00742 41-179 limits assumed): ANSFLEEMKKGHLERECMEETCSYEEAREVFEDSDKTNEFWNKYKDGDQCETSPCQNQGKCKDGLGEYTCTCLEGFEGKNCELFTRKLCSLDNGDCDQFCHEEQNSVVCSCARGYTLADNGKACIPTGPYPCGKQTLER
Chain of Coagulation factor X (P00742 235-488 limits assumed): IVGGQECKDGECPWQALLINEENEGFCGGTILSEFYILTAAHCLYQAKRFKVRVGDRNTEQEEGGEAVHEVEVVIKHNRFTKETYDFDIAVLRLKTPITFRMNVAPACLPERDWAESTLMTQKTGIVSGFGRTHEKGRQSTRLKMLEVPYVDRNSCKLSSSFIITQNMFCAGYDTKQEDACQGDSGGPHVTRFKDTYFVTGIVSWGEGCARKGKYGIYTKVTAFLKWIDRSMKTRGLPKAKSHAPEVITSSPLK

Compound	Ki [1]	Ki [2]
C[C@H]1CNc2cc(S(=O)(=O)N[C@H](CCCNC(=N)N)C(=O)N3CCCCC3C(=O)O)ccc2C1 (stereo partly drawn)	19 nM	
CC(=N)N1CCC(Oc2ccc(C(Cc3ccc4ccc(C(=N)N)cc4c3)C(=O)O)cc2)CC1 (stereo not drawn)		13 nM
O=S(=O)(Nc1cccc(OCCNc2ccncc2)c1)c1ccccc1	23 nM	
